Reference: US5229419A, “Chemotherapeutically active acetogenins” (Purdue Research Foundation, priority 1992, dated 1993)
In brackets after ≈: the same amount, converted by molar mass. Like-named read-outs stand apart in the source and are kept apart here.

What was measured:
[1] = test system: A-549 (human lung carcinoma); assay: A-549 cytotoxicity; assay type: cell-based; details: A549, read-out: A549 ED50
Experimental: (§1) Occasional checks in the potato disc (PD) assay assured us that antitumor activity was present [Ferrigni et al., J. Nat. Prod., 45; 679-686 (1982)]. Cytotoxicity tests were performed at the Purdue Cell Culture Laboratory, Purdue Cancer Center, using standard protocols for 9KB (human nasopharyngeal carcinoma) and 9PS (a chemically-induced murine lymphocytic leukemia) [Suffness et al., Methods In Cancer Research. Vol. 16: 73 (1979), V. T. DeVita, Jr. and H. Busch eds., Academic Press, New York], 9ASK (astrocytoma reversal) [Lgarashi et al., Cell Struct. and Funct., 3: 107 (1978)], A-549 (human lung carcinoma) [Giard et al., J. Nat. Cancer Inst., 51: 1417-1423 (1973)], and HT-29 (human colon adenocarcinoma) [Fogh J. (ed.), Human Tumor Cells, In Vitro, Plenum Press, New York: 115-159 (1975)].
(§2) These two compounds are the most bioactive acetogenins reported to this date. But the safety range for treatments might be larger. In this table, two cytotoxicity tests against human tumor cell lines such as the human lung carcinoma (A-549) [Giard et al., J. Nat. Cancer Inst. 51: 1417-1423 (1973)] and the human colon adenocarcinoma (HT-29) [Fogh, J. (ed.) Human Tumor Cells, In Vitro, pp. 115-159, Plenum Press, New York (1975)] have been performed. […] The mode of action for the acetogenins is still unknown, but it is postulated to involve cell membranes.

[2] = test system: brine shrimp (Artemia salina Leach); assay: whole plant or invertebrate; assay type: in vivo; details: 24 hrs, read-out: BST LC50
Experimental: The extracts, fractions, and isolated compounds were routinely evaluated for lethality to brine shrimp larvae (BST). The LC50 of brine shrimp (Artemia salina Leach) was determined by substantially the same method described by Meyer et al. [Planta Med., 45: 31-34 (1982)]. The test sample was dissolved in solvent and added to 2-dram vials in an amount to provide 1000, 100, 10, 1, etc. p.p.m. of material in the final brine preparation, assuming complete miscibility in the brine. The vials were dried in vacuo, and artificial sea water, prepared from a commercial salt mixture, was added. Ten brine shrimp larva (nauplii), 48-72 hrs. old, were introduced to the vial, and the volume was made up to 5 ml. with the sea water. After 24 hrs., the percent mortality was computed. Subsequently, LC50 values and 95% confidence limits were calculated by a Finney probit analysis to permit comparison of potencies of extracts and fractions.
(§3) Anticancer activity is a potential use even for the crude extract. The bioassay results for the lethality of brine shrimp (BST), the inhibition of crown gall tumors on potato discs (PD), the reversal in morphology of db-cAMP induced AC glioma cells from that of mature, differentiated astrocytes to that of immature AC glioma cells (mouse brain cells) (9ASK), the dose that inhibits cell growth to one-half that of untreated poorly differentiated human epidermic carcinoma (9KB), the dose that inhibits cell growth to one-half that of a methylcholanthrene-induced lymphoid neoplasm in a DBA/2 mouse (9PS), and the percent displacement in a protein kinase C test for initial extract fractions are shown in Table 1. Obviously, the bioactivity is concentrated in F005.

[3] = test system: HT-29 (human colon adenocarcinoma); assay: HT-29 cytotoxicity; assay type: cell-based; details: HT-29, read-out: HT29 ED50
Experimental: as §1, §2

indicator organisms = assay: pesticidal bioassays, overall; details: in vivo
Experimental: Pesticidal bioassays were conducted at Eli Lilly Laboratories (Greenfield, Ind.) following standard procedures with eight indicator organisms: mosquito larvae (ML) Aedes aegypti (in the media), blowfly larvae (BFL) (1% in the diet), corn root worm (CRW) Diabrotics undecimcuntata howardii (in soil), two-spotted spider mite (2SSM) Tetranychus urticae (on foliage), southern army worm (SAW) Spodoptera eridania (on foliage), melon aphid (MA) (5000 ppm on foliage), cotton aphid (CA) Aphis gossypii, (on foliage) and Haemonchus contortus (HC) (a nematode, 0.1% in the media).
The compounds can be formulated at concentrations of about 1 to about 200 ppm in conventional liquid or solid forms for application to pest infected areas.

human tumor cell lines = assay: selectivity of cytotoxicity between human tumor cell lines A-549 and HT-29; assay type: cell-based; details: compared with bullatacin; A-549 vs HT-29
From the text: as §2

[4] = test system: 9PS (murine lymphocytic leukemia); assay: 9PS cytotoxicity; assay type: cell-based; details: Mus musculus; read-out: 9PS ED50
Experimental: as §1, §3

[5] = test system: 9KB (human nasopharyngeal carcinoma); assay: 9KB cytotoxicity; assay type: cell-based
Experimental: as §1, §3

[6] = test system: P-388 (PS) lymphocytic leukemia; details: cited from earlier work
[7] = test system: 9KB (human nasopharyngeal carcinoma); details: cited from earlier work
stripped cucumber beetle = details: cited from earlier work
mice = details: cited from earlier work
blow fly larvae = details: cited from earlier work
3PS lymphocytic leukemia = details: 0.0125 mg/kg; cited from earlier work
[8] = test system: free-living nematode, Caenorabditis elegans; details: cited from earlier work
mosquito larvae = details: cited from earlier work
melon aphid = details: cited from earlier work
[9] = test system: 9PS (murine lymphocytic leukemia); details: cited from earlier work
two spotted spider mites = details: cited from earlier work
Mexican bean beetle = details: cited from earlier work
[10] = test system: P-388 lymphocytic leukemia; details: cited from earlier work
PS = details: cited from earlier work

CCCCCCCCCC[C@H](O)[C@H]1CC[C@H]([C@H]2CC[C@H]([C@H](O)CCCCCCCCCC[C@@H](O)CC3C[C@H](C)OC3=O)O2)O1 (stereo partly shown) [Dihydro-bullatacin]
IC50 [1]: < 0.001 ng/mL
LC50 [2]: 0.0145 µg/mL (≈ 23.2 nM)
IC50 [3]: 0.0333 ng/mL (≈ 0.0533 nM)

CCCCCCCCCC[C@H](O)[C@H]1CC[C@H]([C@H]2CC[C@H]([C@H](O)CCCCCCCCCCC3CC(CC(C)=O)C(=O)O3)O2)O1 (stereo partly shown) [Bullatacinone]
IC50 [1]: 1 ng/mL (≈ 1.61 nM)
pesticidal activity (indicator organisms): lack of pesticidal activity
LC50 [2]: 0.003 µg/mL (≈ 4.82 nM)
selectivity of cytotoxicities (human tumor cell lines): more selective cytotoxicities than bullatacin
IC50 [4]: 0.00423 µg/mL (≈ 6.79 nM)
9KB ED50 [5]: < 10^-12 mcg/ml

CCCCCCCCCC[C@H](OC(C)=O)[C@H]1CC[C@H]([C@H]2CC[C@H]([C@H](O)CCCCCCCCCCCCC3=C[C@H](C)OC3=O)O2)O1 [Uvaricin]
activity in vivo against P-388 lymphocytic leukemia in mice [6]: demonstrated activity in vivo

CCCCCCCCCC[C@H](OC(C)=O)[C@H]1CC[C@H]([C@H]2CC[C@H]([C@@H](CCCCCCCCCC[C@@H]3C[C@@H](CC(C)=O)C(=O)O3)OC(C)=O)O2)O1 [Bullatacinone diacetate]
IC50 [1]: 28 ng/mL
LC50 [2]: > 10 µg/mL
IC50 [4]: 0.0422 µg/mL
IC50 [3]: 100 ng/mL
9KB ED50 [5]: 5000 µg/mL

CCCCCCCCCCC(O)C1CCC(C2CCC(C(O)CCCCCCCCCCC(O)CC3=CC(C)OC3=O)O2)O1 (stereo not shown) [Asimicin]
9KB ED50 [7]: < 10^-5 μg/ml
pesticidal activity (stripped cucumber beetle): Promising pesticidal activity
toxic to mice at (mice): 6.25 mg/kg
pesticidal activity (blow fly larvae): Promising pesticidal activity
% T/C (3PS lymphocytic leukemia): 124 % T/C
pesticidal activity [8]: Promising pesticidal activity
pesticidal activity (mosquito larvae): Promising pesticidal activity
pesticidal activity (melon aphid): Promising pesticidal activity
9PS ED50 [9]: < 10^-7 μg/ml
pesticidal activity (two spotted spider mites): Promising pesticidal activity
pesticidal activity (Mexican bean beetle): Promising pesticidal activity

CCCCCCCCCC[C@H](OC(C)=O)[C@H]1CC[C@H]([C@H]2CC[C@H]([C@@H](CCCCCCCCCC[C@H](CC3=C[C@H](C)OC3=O)OC(C)=O)OC(C)=O)O2)O1 [Bullatacin triacetate]
IC50 [1]: 2 ng/mL
LC50 [2]: 5.7 µg/mL
IC50 [4]: 0.00389 µg/mL
IC50 [3]: > 100 ng/mL
9KB ED50 [5]: 6.85e-07 µg/mL

CCCCCCC(O)CCCC(O)C1CCC(C2CCC(C(O)CCCCCCCCCCCCC3=CC(C)OC3=O)O2)O1 (stereo not shown) [isorollinicin]
in vitro cytotoxicity against P-388 [10]: in vitro cytotoxicity

CCCCCCCCCCC(O)C1CCC(C2CCC(C(O)CCCCCCCCCCC(O)CC3=CC(C)OC3=O)O2)O1 (stereo not shown) [rolliniastatin]
life extension (PS): 28%

CCCCCCCCC[C@@H](O)[C@@H](O)[C@@H]1CC[C@@H]([C@@H]2CC[C@@H]([C@@H](O)CCCCCCCCCCCCC3=CC(C)OC3=O)O2)O1 (stereo partly shown) [rollinicin]
in vitro cytotoxicity against P-388 [10]: in vitro cytotoxicity
